Test results from patent US20170304317A1, “DIETARY S[…] MUSCLE GROWTH AND STRENGTH” (priority 2015, published 2017).

How the values were obtained:
[1] = cited from earlier work
[2] = via conversion to 4-androstenediol; stated as well known; cited from earlier work
[3] = regular (non-esterified) 19 Nor-DHEA; cited from earlier work
[4] = Bioavailability / half-life of 19 Nor-DHEA forms; format: in vivo; settings: compared with regular 19 Nor-DHEA

C[C@]12C=CC(O)CC1CC[C@@H]1[C@@H]2CC[C@]2(C)C(=O)CC[C@@H]12 (some centres unmarked) [1-DHEA]
conversion rate to 1-testosterone ([1]; stated as generally known): less than 2%

C[C@]12CC[C@H](O)C=C1CC[C@@H]1[C@@H]2CC[C@]2(C)C(=O)CC[C@@H]12 [4-DHEA]
anabolic potency compared with regular DHEA [2]: more than two times greater

C[C@]12CC[C@H]3[C@@H](CC=C4C[C@@H](O)CC[C@@H]43)[C@@H]1CCC2=O [19 Nor-DHEA]
half-life [3]: very short half-life

C[C@]12CC[C@H](O)CC1=CC[C@@H]1[C@@H]2CC[C@]2(C)C(=O)CC[C@@H]12 [DHEA, dehydroepiandrosterone]
conversion rate to testosterone ([1]; stated as well known): ~1%

CCCCCCC(=O)O[C@@H]1C=C2CC[C@@H]3[C@H](CC[C@]4(C)C(=O)CC[C@@H]34)[C@H]2CC1 [enanthated 19 Nor-DHEA, 3b-enanthoxy-19-nor-androst-4-ene-17-one]
bioavailability [4]: improved bioavailability
